Assay results taken from article PMC6797481, “Identification of an allosteric binding site on the human glycine transporter, GlyT2, for bioactive lipid analgesics” (eLife, 2019).
Numbering of substitutions follows the chain as printed.

How the values were obtained:
[1] = molecular target: T1, GlyT2 R439L mutant (Homo sapiens, UniProt Q9Y345, R439L); assay: Glycine transport currents, two electrode voltage clamp, oocytes expressing GlyT2 R439L; type: cell-based
T1 construct: expressed in transfected cells; host or cells: Xenopus laevis oocytes (cRNA injection)
T1 sequence (Q9Y345 1-797 R439L): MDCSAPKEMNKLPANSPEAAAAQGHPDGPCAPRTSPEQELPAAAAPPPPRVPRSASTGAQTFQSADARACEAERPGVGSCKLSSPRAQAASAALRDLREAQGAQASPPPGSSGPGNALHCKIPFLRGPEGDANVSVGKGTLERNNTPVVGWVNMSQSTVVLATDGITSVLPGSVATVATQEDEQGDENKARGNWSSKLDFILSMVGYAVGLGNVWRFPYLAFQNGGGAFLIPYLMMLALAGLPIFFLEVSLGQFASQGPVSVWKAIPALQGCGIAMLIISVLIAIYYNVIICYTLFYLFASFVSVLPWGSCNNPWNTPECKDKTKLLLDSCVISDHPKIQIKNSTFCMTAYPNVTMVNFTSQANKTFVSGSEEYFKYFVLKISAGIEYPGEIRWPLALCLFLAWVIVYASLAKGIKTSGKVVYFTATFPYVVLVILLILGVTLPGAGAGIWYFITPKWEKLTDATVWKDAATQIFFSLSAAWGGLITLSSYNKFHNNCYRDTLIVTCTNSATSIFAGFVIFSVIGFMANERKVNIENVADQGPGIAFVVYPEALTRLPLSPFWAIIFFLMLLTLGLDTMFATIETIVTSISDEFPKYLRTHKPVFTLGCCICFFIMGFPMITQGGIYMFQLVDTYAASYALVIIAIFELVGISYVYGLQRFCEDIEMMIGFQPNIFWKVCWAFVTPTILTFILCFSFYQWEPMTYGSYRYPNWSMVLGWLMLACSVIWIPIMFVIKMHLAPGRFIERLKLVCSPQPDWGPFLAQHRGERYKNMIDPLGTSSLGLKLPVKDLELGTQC
Description: Glycine was first applied to establish maximal transport current.
Compounds were tested for inhibition of glycine transport on Xenopus laevis oocytes expressing mutant GlyT1 and GlyT2 transporters. n values are in brackets, with measurements taken from at least 2 batches of oocytes.

[2] = test system: GlyT1 WT; settings: read-out: Glycine EC50, glycine transport
Description: (§1) Human GlyT1b or GlyT2a (herein referred to as GlyT1 and GlyT2) cDNA were sub-cloned into the plasmid oocyte transcription vector (pOTV). Site-directed mutagenesis was performed using traditional PCR techniques, and sequences confirmed by the Australian Genome Research Facility (Sydney, Australia). WT and mutant plasmid DNA were linearised with SpeI (New England Biolabs (Genesearch) Arundel, Australia) and RNA transcribed by T7 RNA polymerase using the mMessagemMachine kit (Ambion, TX, USA).
(§2) Oocytes were extracted from female Xenopus laevis frogs and detached from follicle cell containing lobes by digestion with 2 mg/mL collagenase A (Boehringer, Mannheim, Germany). Defoliculated stage V-VI oocytes were injected with 4.6 ng of cRNA encoding WT or mutant transporter (Drummond Nanoinject, Drummond Scientific Co., Broomall, PA, USA). Surgical proceedures have been approved by the University of Sydney Animal Ethics Committee (protocol 2016/970). […]
(§3) 2–5 days following injection, glycine transport currents were measured at −60 mV using Geneclamp 500 amplifier (Axon Instruments, Foster City, CA, USA) with a Powerlab 2/20 chart recorder (ADInstruments, Sydney, Australia) and chart software (ADInstruments). All data were subsequently analysed using GraphPad Prism 7.02 (GraphPad Software, San Diego, CA). […]

[3] = molecular target: T2, GlyT2 WT (Homo sapiens, UniProt Q9Y345); settings: read-out: Glycine EC50, glycine transport, mean ± SEM
T2 sequence (Q9Y345 1-797): T1 sequence (Q9Y345 1-797 R439L) with L439R
Description: as §1, §2, §3

[4] = design: method as in Mostyn et al., 2019; settings: ref Mostyn et al., 2019; cited from earlier work

## NCC(=O)O [Glycine]
[1]; glycine transport, GlyT2 R439L (TM5)
  EC50: 23 ± 4 µM
[2]
  EC50: 14.4 ± 1.2 µM
[3]
  EC50: 14.5 ± 2.6 µM

## oleoyl d-Lysine
[4]
  blood brain barrier permeability: blood brain barrier permeable

## CCCCCCCC/C=C\CCCCCCCC(=O)N[C@@H](Cc1c[nH]c2ccccc12)C(=O)O [oleoyl l-Tryptophan]
[1]; GlyT2 R439L, mean (95% CI)
  IC50: 0.109 µM
[1]; GlyT2 R439L, mean ± SEM
  % Max. inhibition: 75.3 ± 4.2 (p=0.1040) %
